Experimental data taken from patent publication US8993514B1 (The Florida State University Research Foundation, Inc., priority 2011, dated 2015).
“And” between values parts separate entries of the source, which are not always exact repeats. Equal entries are not always repeated. Where two headings read alike, the source gives them in different places.

Key:
[1] = format: binding; conditions: for hemin binding indicated by decrease of fluorescence intensity as hemin is added: pH 7.4; for estimated number of hemin molecules bound to the respective peptide: 25° C.
[2] = format: binding; conditions: 1% DMSO
[3] = system: brain edema after traumatic brain injury; conditions: in vivo, 8 mg/kg
[4] = system: cultured neurons and astrocytes; conditions: cited from earlier work

Substance	hemin binding indicated by decrease of fluorescence intensity as hemin is added [1]	estimated number of hemin molecules bound to the respective peptide ([1]; pH = 5.0)	estimated number of hemin molecules bound to the respective peptide ([1]; pH = 7.4)	hemin binding indicated by SPR response increasing with hemin concentration [2]	% water content of brain tissue from impacted region, individual rat [3]	% water content of brain tissue from impacted region, average ([3]; rat)	effect on brain swelling ([3]; rat)	hemin concentration sufficient to kill 60%-70% of cultured neurons and astrocytes [4]
GQPHGGGWGQPHGGGWGQPHGGGWGQPHGGGWGQGGG (Synthetically generated peptide) [SEQ ID NO: 6, 4-repeat peptide of the octarepeat region with additional flanking residues]	hemin forms a chemical bond	4.0	2.0	hemin binds to the respective peptide	–	–	–	–
PHGGGWGQPHGGGWGQ [SEQ ID NO: 3]	hemin forms a chemical bond	–	–	–	80.93% and 77.24% and 80.98%	79.72%	reduced the brain swelling	–
hemin	–	–	–	–	–	–	–	3 to 30 µM
